Test results reported in ChEMBL document CHEMBL3425434 (J Med Chem, 2015).
The source made the active and inactive calls. The calls are words filed in the database; no cut-off is given here.

Legend:
[1] = Lipophilicity, log D of the compound at pH 7.4; assay type: physicochemical; settings: buffer
[2] = Inhibition of ROCK-catalysed MLC Thr18/Ser19 phosphorylation in rat A7r5 cells after 90 mins by ELISA; assay type: cell-based; settings: A7R5, 1.5 h
[3] = tested on: HDF-1; experiment: Induction of cell migration in human HDF-1 cells at 1 uM after 8 hrs by wound healing assay; assay type: functional, cell-based
[4] = Apparent permeability across human Caco2 cells; assay type: ADME, cell-based; settings: Caco-2
[5] = biological target: T1, Rho-associated protein kinase 2 (Homo sapiens, UniProt O75116); experiment: Inhibition of human N-terminal GST-tagged ROCK2 expressed in baculovirus-infected insect cells using long S6 kinase peptide as substrate by radiometric assay in presence of [32P]ATP
T1 sequence (O75116 whole entry): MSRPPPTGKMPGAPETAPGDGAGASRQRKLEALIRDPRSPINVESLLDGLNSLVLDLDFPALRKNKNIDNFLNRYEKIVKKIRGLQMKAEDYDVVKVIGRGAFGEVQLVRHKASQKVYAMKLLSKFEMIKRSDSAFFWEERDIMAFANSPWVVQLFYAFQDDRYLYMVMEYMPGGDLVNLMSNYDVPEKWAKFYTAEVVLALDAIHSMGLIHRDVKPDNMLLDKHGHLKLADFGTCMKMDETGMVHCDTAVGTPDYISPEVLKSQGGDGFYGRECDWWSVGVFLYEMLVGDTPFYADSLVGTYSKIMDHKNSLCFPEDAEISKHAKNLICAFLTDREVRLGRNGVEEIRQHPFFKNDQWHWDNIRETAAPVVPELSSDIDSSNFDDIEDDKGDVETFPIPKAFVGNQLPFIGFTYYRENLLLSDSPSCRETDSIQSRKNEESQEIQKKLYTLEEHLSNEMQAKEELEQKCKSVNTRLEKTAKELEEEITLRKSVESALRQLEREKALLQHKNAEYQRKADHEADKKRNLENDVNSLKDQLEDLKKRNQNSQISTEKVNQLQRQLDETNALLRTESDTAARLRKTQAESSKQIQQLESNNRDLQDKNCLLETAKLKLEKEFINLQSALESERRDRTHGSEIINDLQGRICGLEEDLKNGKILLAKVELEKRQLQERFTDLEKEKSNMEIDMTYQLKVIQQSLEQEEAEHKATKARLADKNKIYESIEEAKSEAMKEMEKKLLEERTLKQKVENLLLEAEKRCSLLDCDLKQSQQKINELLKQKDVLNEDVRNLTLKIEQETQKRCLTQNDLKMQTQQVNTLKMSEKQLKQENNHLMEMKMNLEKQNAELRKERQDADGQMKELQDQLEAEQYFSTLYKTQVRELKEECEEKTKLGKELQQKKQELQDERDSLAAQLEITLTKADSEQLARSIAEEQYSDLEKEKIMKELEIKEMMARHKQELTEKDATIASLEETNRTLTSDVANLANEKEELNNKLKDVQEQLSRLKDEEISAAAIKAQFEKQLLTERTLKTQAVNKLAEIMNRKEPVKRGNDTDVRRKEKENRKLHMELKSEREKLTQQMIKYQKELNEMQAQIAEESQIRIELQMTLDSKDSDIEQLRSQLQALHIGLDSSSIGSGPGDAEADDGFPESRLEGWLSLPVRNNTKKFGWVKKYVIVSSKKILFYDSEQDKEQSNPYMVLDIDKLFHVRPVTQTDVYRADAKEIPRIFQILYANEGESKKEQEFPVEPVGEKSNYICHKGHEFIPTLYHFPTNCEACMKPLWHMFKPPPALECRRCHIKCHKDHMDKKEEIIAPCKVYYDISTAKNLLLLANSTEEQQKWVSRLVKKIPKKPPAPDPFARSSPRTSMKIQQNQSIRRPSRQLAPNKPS

[6] = Half life in human plasma by LC-MS/MS analysis; assay type: ADME, cell-free
[7] = Stability in human plasma assessed as compound remaining after 60 mins by LC-MS/MS analysis; assay type: ADME, cell-free; settings: read-out: Stability
[8] = Stability in human plasma assessed as compound remaining after 60 mins by LC-MS/MS analysis in presence of 5 uM cholinesterase inhibitor tacrine; assay type: ADME, cell-free; settings: with tacrine (cholinesterase inhibitor), read-out: Stability
[9] = biological target: T1, Rho-associated protein kinase 2; experiment: Inhibition of human N-terminal GST-tagged ROCK2 expressed in baculovirus-infected insect cells using long S6 kinase peptide as substrate by radiometric assay in presence of [32P]ATP and 200 uM ATP
[10] = Stability in human plasma assessed as compound remaining after 2 hrs by LC-MS/MS analysis; assay type: ADME, cell-free; settings: read-out: Stability
[11] = Half life in human plasma by LC-MS/MS analysis in presence of 5 uM cholinesterase inhibitor tacrine; assay type: ADME, cell-free; settings: with tacrine (cholinesterase inhibitor)
[12] = biological target: Rho-associated protein kinase 1 (Homo sapiens, UniProt Q13464); experiment: Inhibition of human N-terminal GST-tagged ROCK1 expressed in insect cells using long S6 kinase peptide as substrate by radiometric assay in presence of [32P]ATP
Sequence of Rho-associated protein kinase 1 (Q13464 whole entry): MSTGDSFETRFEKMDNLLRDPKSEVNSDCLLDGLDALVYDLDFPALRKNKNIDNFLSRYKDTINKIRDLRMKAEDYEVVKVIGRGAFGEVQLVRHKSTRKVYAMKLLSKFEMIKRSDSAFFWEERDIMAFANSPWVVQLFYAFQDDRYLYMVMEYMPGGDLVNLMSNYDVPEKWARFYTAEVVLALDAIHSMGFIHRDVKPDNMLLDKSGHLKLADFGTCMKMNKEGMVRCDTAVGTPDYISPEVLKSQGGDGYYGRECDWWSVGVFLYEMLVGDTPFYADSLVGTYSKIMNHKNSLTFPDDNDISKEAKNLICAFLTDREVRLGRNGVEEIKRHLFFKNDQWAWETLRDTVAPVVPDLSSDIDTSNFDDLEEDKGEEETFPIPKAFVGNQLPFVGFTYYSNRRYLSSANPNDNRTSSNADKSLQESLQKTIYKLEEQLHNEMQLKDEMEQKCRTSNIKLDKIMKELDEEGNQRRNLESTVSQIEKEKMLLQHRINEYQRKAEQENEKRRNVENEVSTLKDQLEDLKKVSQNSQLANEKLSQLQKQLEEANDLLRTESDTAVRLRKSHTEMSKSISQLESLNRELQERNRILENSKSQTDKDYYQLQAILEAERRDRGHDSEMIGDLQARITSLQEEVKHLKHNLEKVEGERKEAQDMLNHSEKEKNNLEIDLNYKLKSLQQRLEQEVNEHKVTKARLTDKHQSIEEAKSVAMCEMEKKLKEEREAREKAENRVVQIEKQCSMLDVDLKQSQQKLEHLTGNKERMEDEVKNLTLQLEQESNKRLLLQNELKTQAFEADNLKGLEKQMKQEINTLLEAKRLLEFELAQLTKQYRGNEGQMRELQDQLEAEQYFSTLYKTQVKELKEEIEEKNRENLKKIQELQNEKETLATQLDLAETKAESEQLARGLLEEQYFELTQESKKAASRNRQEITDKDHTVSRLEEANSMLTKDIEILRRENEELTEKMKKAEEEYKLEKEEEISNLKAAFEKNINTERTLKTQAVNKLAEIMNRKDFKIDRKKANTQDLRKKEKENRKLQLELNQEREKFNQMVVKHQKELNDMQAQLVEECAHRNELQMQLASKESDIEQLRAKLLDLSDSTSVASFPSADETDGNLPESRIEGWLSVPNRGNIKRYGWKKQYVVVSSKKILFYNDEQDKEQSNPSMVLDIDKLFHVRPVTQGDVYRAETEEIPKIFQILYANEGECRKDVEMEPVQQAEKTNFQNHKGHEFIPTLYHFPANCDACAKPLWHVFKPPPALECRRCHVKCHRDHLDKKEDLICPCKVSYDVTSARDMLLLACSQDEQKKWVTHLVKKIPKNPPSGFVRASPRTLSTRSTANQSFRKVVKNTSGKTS

[13] = tested on: HDF-1; experiment: Induction of cell migration in human HDF-1 cells after 8 hrs by wound healing assay; assay type: functional, cell-based
[14] = Cytotoxicity against human HDF-1 cells assessed as decrease in cell viability after 2 hrs by WST-1 assay; assay type: cell-based
[15] = Induction of apoptosis in human HDF-1 cells assessed as increase in caspase3/7 activity at 40-100 uM after 24 hrs by caspase Glo-3/7 assay; assay type: cell-based; settings: hdf-1, 24 h
[16] = tested on: Plasma; experiment: Stability in human plasma by LC-MS/MS analysis in presence of carboxylesterase inhibitor BNPP; assay type: ADME, cell-free
[17] = Induction of apoptosis in human HDF-1 cells assessed as increase in caspase3/7 activity at 60 uM after 24 hrs by caspase Glo-3/7 assay; assay type: cell-based; settings: hdf-1, 24 h
[18] = tested on: Plasma; experiment: Stability in human plasma by LC-MS/MS analysis in presence of 5 mM PON1 inhibitor, disodium EDTA; assay type: ADME, cell-free
[19] = tested on: Plasma; experiment: Stability in human plasma after 120 mins by LC-MS/MS analysis in presence of generic serine protease/serine esterase inhibitor, PMSF; assay type: ADME, cell-free; settings: 2 h
[20] = tested on: Plasma; experiment: Stability in human plasma by LC-MS/MS analysis in presence of arylesterase inhibitor DTNB; assay type: ADME, cell-free

SMILES	EC50 [2] [nM]	IC50 [5] [nM]	half-life [6] [min]	IC50 [9] [nM]	also measured
CC[C@H](C)OC(=O)Cc1ccc(NC(=O)c2cccc(-c3cc(C(=O)Nc4ccncc4F)ccc3CN)c2)cc1	23	< 1	17	< 1	remaining at 1 h [7]: 42%; remaining at 1 h [8]: 101%
CC[C@@H](C)OC(=O)c1ccc(F)c(NC(=O)c2cccc(-c3cc(C(=O)Nc4ccncc4F)ccc3CN)c2)c1	79	3.3	46		
COC(=O)c1cccc(NC(=O)c2cccc(-c3cc(C(=O)Nc4ccncc4F)ccc3CN)c2)c1	79	1.1	< 5	125	half-life [11]: 53 min; IC50 [12]: < 1 nM
CN1CCC(OC(=O)Cc2ccc(NC(=O)c3cccc(-c4cc(C(=O)Nc5ccncc5F)ccc4CN)c3)cc2)CC1	330	< 1	< 5	4.6	
NCc1ccc(C(=O)Nc2ccncc2F)cc1-c1cccc(C(=O)Nc2cc(C(=O)O)ccc2F)c1	3900	2	> 120		
NCc1ccc(C(=O)Nc2ccncc2F)cc1-c1cccc(C(=O)Nc2ccc(CC(=O)OC3CCCC3)cc2)c1	26	< 1	7	1.3	remaining at 1 h [7]: 2%; remaining at 1 h [8]: 100%; Activity [13]: Dose-dependent effect; CC50 at 2 h [14]: 29000 nM; Activity [15]: Toxic
C[C@H]1CNCCCN1S(=O)(=O)c1cccc2cncc(F)c12	210	3.8		197	
COC(=O)Cc1ccc(NC(=O)c2cccc(-c3cc(C(=O)Nc4ccncc4F)ccc3CN)c2)cc1	31	< 1	< 5	11	half-life [11]: 53 min; IC50 [12]: < 1 nM
COC(=O)c1ccc(F)c(C(=O)Nc2cccc(-c3cc(C(=O)Nc4ccncc4F)ccc3CN)c2)c1	6.8	< 1	53	1.4	remaining at 1 h [7]: 23%; remaining at 1 h [8]: 103%
NCc1ccc(C(=O)Nc2ccncc2F)cc1-c1cccc(NC(=O)c2cc(C(=O)O)ccc2F)c1	8900	< 1	> 120		
COC(=O)c1ccc(C(=O)Nc2cccc(-c3cc(C(=O)Nc4ccncc4F)ccc3CN)c2)cc1	5.2	< 1	> 120	3.1	
NCc1ccc(C(=O)Nc2ccncc2F)cc1-c1cccc(C(=O)Nc2ccc(CC(=O)OC3CCOCC3)cc2)c1	79	< 1	7	< 1	remaining at 1 h [7]: 0%; remaining at 1 h [8]: 82%
CC(C)OC(=O)Cc1ccc(NC(=O)c2cccc(-c3cc(C(=O)Nc4ccncc4F)ccc3CN)c2)cc1	37	< 1	94	< 1	
CC[C@H](C)OC(=O)c1ccc(F)c(NC(=O)c2cccc(-c3cc(C(=O)Nc4ccncc4F)ccc3CN)c2)c1	50	5.5	39	72	
NCc1ccc(C(=O)Nc2ccncc2F)cc1-c1cccc(C(=O)Nc2ccc(CC(=O)OC3CCC3)cc2)c1	24	1.3	6	1.4	
COCCOC(=O)c1ccc(F)c(C(=O)Nc2cccc(-c3cc(C(=O)Nc4ccncc4F)ccc3CN)c2)c1	26	< 1	< 5	2.2	remaining at 1 h [7]: 0%; remaining at 1 h [8]: 88%
COC(=O)Cc1cccc(NC(=O)c2cccc(-c3cc(C(=O)Nc4ccncc4F)ccc3CN)c2)c1	220	1.1	< 5	144	IC50 [12]: < 1 nM
COC(=O)c1cccc(NC(=O)c2cccc(-c3cc(C(=O)Nc4ccncc4F)ccc3CN)c2)c1F	11	1.2	< 5	8.8	
NCc1ccc(C(=O)Nc2ccncc2F)cc1-c1cccc(C(=O)Nc2cccc(CC(=O)O)c2)c1	1300	1.5	> 120		
COC(=O)c1ccc(F)c(NC(=O)c2cccc(-c3cc(C(=O)Nc4ccncc4F)ccc3CN)c2)c1	26	1.6	18	46	Stability [16]: Unstable; Activity [17]: Toxic; remaining at 1 h [7]: 13%; remaining at 1 h [8]: 98%; Stability [18]: Unstable; Stability [19]: Stable; Stability [20]: Unstable; Activity [13]: Dose-dependent effect; CC50 at 2 h [14]: 45000 nM
C[C@@H](N)[C@H]1CC[C@H](C(=O)Nc2ccncc2)CC1 [Y-27632]	630		> 120		
NCc1ccc(C(=O)Nc2ccncc2F)cc1-c1cccc(NC(=O)c2cccc(C(=O)O)c2)c1	2000	< 1	> 120		

Second part, led by results:

EC50 [2] [nM]	IC50 [5] [nM]	half-life [6] [min]	IC50 [9] [nM]	SMILES	also measured
6600	3.3	> 120		NCc1ccc(C(=O)Nc2ccncc2F)cc1-c1cccc(C(=O)Nc2ccc(C(=O)O)cc2)c1	logD [1]: 0.56; Activity [3]: inactive; Papp [4]: 0.08 ×10⁻⁶ cm/s
22	< 1	> 120	31	NCc1ccc(C(=O)Nc2ccncc2F)cc1-c1cccc(C(=O)Nc2ccccc2)c1	Papp [4]: 2.3 ×10⁻⁶ cm/s; remaining at 2 h [10]: > 90%
15	1.8	< 5		CCCOC(=O)c1cccc(C(=O)Nc2cccc(-c3cc(C(=O)Nc4ccncc4F)ccc3CN)c2)c1	
3600	1			NCc1ccc(C(=O)Nc2ccncc2F)cc1-c1cccc(NC(=O)c2ccc(C(=O)O)cc2)c1	
> 10000	3.5	> 120		NCc1ccc(C(=O)Nc2ccncc2F)cc1-c1cccc(C(=O)Nc2cccc(C(=O)O)c2F)c1	
31	< 1	> 120	< 1	CC[C@@H](C)OC(=O)Cc1ccc(NC(=O)c2cccc(-c3cc(C(=O)Nc4ccncc4F)ccc3CN)c2)cc1	
150	7	34		CC(C)OC(=O)c1cccc(NC(=O)c2cccc(-c3cc(C(=O)Nc4ccncc4F)ccc3CN)c2)c1	
43	1.4	9	41	NCc1ccc(C(=O)Nc2ccncc2F)cc1-c1cccc(C(=O)Nc2cccc(C(=O)OC3CCCC3)c2F)c1	
8.3	< 1	> 120		CCCOC(=O)c1ccc(NC(=O)c2cccc(-c3cc(C(=O)Nc4ccncc4F)ccc3CN)c2)cc1	
5900	6.6	> 120		NCc1ccc(C(=O)Nc2ccncc2F)cc1-c1cccc(C(=O)Nc2cccc(C(=O)O)c2)c1	
75	2.1	< 5		CCCOC(=O)c1ccc(F)c(NC(=O)c2cccc(-c3cc(C(=O)Nc4ccncc4F)ccc3CN)c2)c1	
180	27	< 5		CCCCOC(=O)c1cccc(NC(=O)c2cccc(-c3cc(C(=O)Nc4ccncc4F)ccc3CN)c2)c1	
3600	1.8	> 120		NCc1ccc(C(=O)Nc2ccncc2F)cc1-c1cccc(C(=O)Nc2ccc(CC(=O)O)cc2)c1	
17	< 1	64	2.1	COC(=O)c1cccc(C(=O)Nc2cccc(-c3cc(C(=O)Nc4ccncc4F)ccc3CN)c2)c1	
94		< 5	49	NCc1ccc(C(=O)Nc2ccncc2F)cc1-c1cccc(C(=O)OCC2CCCO2)c1 (configuration not stated)	
77	2.6	16		CCC(C)OC(=O)c1cccc(NC(=O)c2cccc(-c3cc(C(=O)Nc4ccncc4F)ccc3CN)c2)c1 (configuration not stated)	
36	< 1	6	< 1	NCc1ccc(C(=O)Nc2ccncc2F)cc1-c1cccc(C(=O)Nc2ccc(CC(=O)OC3CCCOC3)cc2)c1 (configuration not stated)	
